Reference: ChEMBL document CHEMBL1201862, “PubChem BioAssay data set” (2004)
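96-well plates; 48 h exposure; 5 concentrations. Endpoints by linear interpolation between flanking doses. Not reached: highest tested concentration assigned. GI50: concentration for 50% inhibition of growth.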 The source made the active and inactive calls. Rule as the data show it: active = GI50 up to about 1.1 µM and inactive = higher.

Assays:
Test in all cases: growth of human tumour cells (NCI), 48 h
786-0 = system: 786-0
A498 = system: A498
A549 = system: A549
ACHN = system: ACHN
BT-549 = system: BT-549
CAKI-1 = system: CAKI-1
CCRF-CEM = system: CCRF-CEM
COLO 205 = system: COLO 205
DU-145 = system: DU-145
EKVX = system: EKVX
HCC 2998 = system: HCC 2998
HCT-116 = system: HCT-116
HCT-15 = system: HCT-15
HL-60 = system: HL-60
HOP-92 = system: HOP-92
HT-29 = system: HT-29
Hs-578T = system: Hs-578T
IGROV-1 = system: IGROV-1
K562 = system: K562
KM12 = system: KM12
LOX IMVI = system: LOX IMVI
M14 = system: M14
MCF7 = system: MCF7
MDA-MB-231 = system: MDA-MB-231
MDA-MB-435 = system: MDA-MB-435
MDA-N = system: MDA-N
MOLT-4 = system: MOLT-4
NCI-H226 = system: NCI-H226
NCI-H23 = system: NCI-H23
NCI-H460 = system: NCI-H460
NCI-H522 = system: NCI-H522
NCI/ADR-RES = system: NCI/ADR-RES
OVCAR-3 = system: OVCAR-3
OVCAR-4 = system: OVCAR-4
OVCAR-5 = system: OVCAR-5
OVCAR-8 = system: OVCAR-8
PC-3 = system: PC-3
RPMI-8226 = system: RPMI-8226
SF-268 = system: SF-268
SF-295 = system: SF-295
SF-539 = system: SF-539
SK-MEL-28 = system: SK-MEL-28
SK-MEL-2 = system: SK-MEL-2
SK-MEL-5 = system: SK-MEL-5
SK-OV-3 = system: SK-OV-3
SN12C = system: SN12C
SNB-19 = system: SNB-19
SNB-75 = system: SNB-75
SW-620 = system: SW-620
T47D = system: T47D
TK-10 = system: TK-10
U-251 = system: U-251
UACC-257 = system: UACC-257
UACC-62 = system: UACC-62
UO-31 = system: UO-31
HOP-62 = system: HOP-62
Malme-3M = system: Malme-3M
RXF 393 = system: RXF 393

Structure (SMILES): COc1ccc(NC(=O)C(=O)C(CC2C(=O)NC(=S)NC2=O)C(=O)c2ccc3ccccc3c2)c([N+](=O)[O-])c1 (configuration not stated)
- GI50 (786-0): > 100 µM (inactive)
- GI50 (A498): > 100 µM (inactive)
- GI50 (A549): > 100 µM (inactive)
- GI50 (ACHN): > 100 µM (inactive)
- GI50 (BT-549): > 100 µM (inactive)
- GI50 (CAKI-1): > 100 µM (inactive)
- GI50 (CCRF-CEM): 8.99 µM (inactive)
- GI50 (COLO 205): > 100 µM (inactive)
- GI50 (DU-145): > 100 µM (inactive)
- GI50 (EKVX): > 100 µM (inactive)
- GI50 (HCC 2998): > 100 µM (inactive)
- GI50 (HCT-116): > 100 µM (inactive)
- GI50 (HCT-15): > 100 µM
- GI50 (HL-60): > 100 µM (inactive)
- GI50 (HOP-92): > 100 µM (inactive)
- GI50 (HT-29): > 100 µM (inactive)
- GI50 (Hs-578T): > 100 µM (inactive)
- GI50 (IGROV-1): > 100 µM (inactive)
- GI50 (K562): > 100 µM (inactive)
- GI50 (KM12): > 100 µM (inactive)
- GI50 (LOX IMVI): > 100 µM (inactive)
- GI50 (M14): > 100 µM (inactive)
- GI50 (MCF7): > 100 µM (inactive)
- GI50 (MDA-MB-231): > 100 µM (inactive)
- GI50 (MDA-MB-435): > 100 µM (inactive)
- GI50 (MDA-N): > 100 µM (inactive)
- GI50 (MOLT-4): > 100 µM (inactive)
- GI50 (NCI-H226): > 100 µM (inactive)
- GI50 (NCI-H23): > 100 µM (inactive)
- GI50 (NCI-H460): > 100 µM (inactive)
- GI50 (NCI-H522): > 100 µM (inactive)
- GI50 (NCI/ADR-RES): > 100 µM (inactive)
- GI50 (OVCAR-3): > 100 µM (inactive)
- GI50 (OVCAR-4): > 100 µM (inactive)
- GI50 (OVCAR-5): > 100 µM (inactive)
- GI50 (OVCAR-8): > 100 µM (inactive)
- GI50 (PC-3): > 100 µM (inactive)
- GI50 (RPMI-8226): 76.9 µM (inactive)
- GI50 (SF-268): > 100 µM (inactive)
- GI50 (SF-295): > 100 µM (inactive)
- GI50 (SF-539): > 100 µM (inactive)
- GI50 (SK-MEL-28): > 100 µM (inactive)
- GI50 (SK-MEL-2): > 100 µM (inactive)
- GI50 (SK-MEL-5): > 100 µM (inactive)
- GI50 (SK-OV-3): > 100 µM (inactive)
- GI50 (SN12C): > 100 µM (inactive)
- GI50 (SNB-19): > 100 µM (inactive)
- GI50 (SNB-75): > 100 µM (inactive)
- GI50 (SW-620): > 100 µM (inactive)
- GI50 (T47D): > 100 µM (inactive)
- GI50 (TK-10): > 100 µM (inactive)
- GI50 (U-251): > 100 µM (inactive)
- GI50 (UACC-257): > 100 µM (inactive)
- GI50 (UACC-62): > 100 µM (inactive)
- GI50 (UO-31): > 100 µM (inactive)

Structure (SMILES): Nc1ccc(-c2nc3ccccc3s2)cc1C(F)(F)F
- GI50 (786-0): 13.5 µM (inactive)
- GI50 (A498): 17.6 µM (inactive)
- GI50 (A549): 17.8 µM (inactive)
- GI50 (ACHN): 15.2 µM (inactive)
- GI50 (BT-549): 13.2 µM (inactive)
- GI50 (CAKI-1): 15.2 µM (inactive)
- GI50 (CCRF-CEM): 21.1 µM (inactive)
- GI50 (COLO 205): 18.1 µM (inactive)
- GI50 (DU-145): 15.8 µM (inactive)
- GI50 (EKVX): 11 µM (inactive)
- GI50 (HCT-116): 13.4 µM (inactive)
- GI50 (HCT-15): 13.4 µM
- GI50 (HL-60): 12.5 µM (inactive)
- GI50 (HOP-62): 15.4 µM (inactive)
- GI50 (HOP-92): 16.3 µM (inactive)
- GI50 (HT-29): 15.5 µM (inactive)
- GI50 (Hs-578T): 20 µM (inactive)
- GI50 (K562): 20 µM (inactive)
- GI50 (KM12): 16.1 µM (inactive)
- GI50 (LOX IMVI): 16.4 µM (inactive)
- GI50 (M14): 14.9 µM (inactive)
- GI50 (MCF7): 1.52 µM (inactive)
- GI50 (MDA-MB-231): 13.2 µM (inactive)
- GI50 (MDA-MB-435): 16.5 µM (inactive)
- GI50 (MDA-N): 13.6 µM (inactive)
- GI50 (MOLT-4): 19.9 µM (inactive)
- GI50 (Malme-3M): 15.8 µM (inactive)
- GI50 (NCI-H23): 13.5 µM (inactive)
- GI50 (NCI-H522): 16.8 µM (inactive)
- GI50 (NCI/ADR-RES): 17.7 µM (inactive)
- GI50 (OVCAR-3): 16.4 µM (inactive)
- GI50 (OVCAR-8): 18.6 µM (inactive)
- GI50 (PC-3): 15.7 µM (inactive)
- GI50 (RPMI-8226): 16.5 µM (inactive)
- GI50 (RXF 393): 9.08 µM (inactive)
- GI50 (SF-268): 16 µM (inactive)
- GI50 (SF-295): 17.4 µM (inactive)
- GI50 (SF-539): 18.7 µM (inactive)
- GI50 (SK-MEL-28): 17.3 µM (inactive)
- GI50 (SK-MEL-2): 17.2 µM (inactive)
- GI50 (SK-MEL-5): 15.5 µM (inactive)
- GI50 (SK-OV-3): 16.6 µM (inactive)
- GI50 (SN12C): 13.6 µM (inactive)
- GI50 (SNB-19): 17.4 µM (inactive)
- GI50 (SNB-75): 14.5 µM (inactive)
- GI50 (SW-620): 16.4 µM (inactive)
- GI50 (T47D): 5.31 µM (inactive)
- GI50 (TK-10): 13.1 µM (inactive)
- GI50 (U-251): 15 µM (inactive)
- GI50 (UACC-257): 15.6 µM (inactive)
- GI50 (UACC-62): 16.9 µM (inactive)
- GI50 (UO-31): 14.7 µM (inactive)
